Test results from PubChem BioAssay AID1361 (SRMLSC, 2008).
Calls of active or inactive are those of the source. How the calls were made is not given here.

Test: mitochondrial fusion inhibitors, confirmation, cell-based, chemical genetic, wild-type and mutant (AID 1361)
Conditions: Cell-based mitochondrial fusion phenotype, imaging
[1] = mutant cells, measured here: mutant cell line IC50

Compound	IC50 (WT cells)	IC50 [1] [µM]
Cc1ccc(C)c(C(=O)COC(=O)c2cc([N+](=O)[O-])ccc2NCCO)c1	25 µM (inactive)	> 12.5
O=C(c1ccccn1)N1N=C2/C(=C/c3ccc(F)cc3)CCCC2C1c1ccc(F)cc1 (stereo not given)	16.1 µM	> 25
COC(=O)C1C(=O)NCC1c1ccccc1 (stereo not given)	> 25 µM (inactive)	> 25
CC1CCCN(C(=O)CSc2nnc(-c3cccnc3)n2C2CCCCC2)C1 (stereo not given)	> 25 µM (inactive)	> 25
CCc1cc(C(=O)Cc2ccc(F)cc2)c(O)cc1O	> 25 µM (inactive)	> 25
COCCn1c(CN2CCC(Cc3ccccc3)CC2)nc2c1c(=O)n(C)c(=O)n2C	> 25 µM (inactive)	> 25
CCc1cccc(CC)c1NC(=S)NCCc1c(C)[nH]c2ccccc12	19.8 µM	> 25
Cc1cccc(N/N=C(\C=N\N)C(=O)c2ccc(Br)cc2)c1	> 25 µM (inactive)	> 25
Cc1ccc(-c2cc(C(F)F)n3ncc(C(=O)Nc4c(C)nn(Cc5ccccc5Cl)c4C)c3n2)cc1	16.2 µM	> 25
Oc1ccccc1CN(Cc1ccco1)CC(O)COCc1ccc(Cl)cc1 (stereo not given)	19.1 µM	> 25
CCOC(=O)N1CCN(S(=O)(=O)c2ccc(C)cc2)C1c1ccc(OC)cc1 (stereo not given)	> 25 µM (inactive)	> 25
Clc1ccc(Cn2c(/C=C/c3ccco3)nc3ccccc32)cc1	12.6 µM	> 25
CC(=O)Nc1ccc(S(=O)(=O)N2CCN(C)CC2)cc1	> 25 µM (inactive)	> 25
CC(C)C12CN3CCN(CC(C3)C1O)C2 (stereo not given)	> 25 µM (inactive)	> 25
CC(=O)N(C)c1nnc(-c2cnccn2)s1	> 25 µM (inactive)	> 25
CC1CCC(C(C)C)C(OC(=O)COC(=O)c2ccccc2N)C1 (stereo not given)	17.9 µM	> 25
Fc1cccc(-c2cc3nc4c(c(N5CCC6(CC5)OCCO6)n3n2)CCCC4)c1	> 25 µM (inactive)	> 25
O=C(CCc1ccccc1)Nc1nnc(-c2ccc3c(c2)CCCC3)o1	8.76 µM	> 25
Cc1nn(C(C)(C)C)c(OC(=O)c2cccs2)c1Sc1ccccc1	22.1 µM	> 25
COCCN(C(=S)Nc1cccc(C)c1)C(C)c1cccs1 (stereo not given)	23.7 µM	> 25

Compound	IC50 (WT cells)	IC50 [1] [µM]
CCCCCCOC1(c2ccccc2)OC(=O)c2ccccc21 (stereo not given)	17 µM	21.5
Oc1cccc(C2c3[nH]c4ccccc4c3CCN2Cc2cnn(-c3ccccc3)c2)c1 (stereo not given)	> 25 µM (inactive)	> 25
COc1ccc2ccc3c(c2c1)N=C[C@]1(O3)N(C)c2ccccc2C1(C)C	8.07 µM	> 25
COc1ccccc1-c1nnc(SCC(=O)NCc2c(C)c(Cl)cc(C(C)C)c2O)o1	9.66 µM	> 25
CCCOc1ccc(C2C(C(=O)c3ccco3)=C(O)C(=O)N2CCN2CCOCC2)cc1OC (stereo not given)	> 25 µM (inactive)	> 25
CCn1nccc1C(=O)Nc1ccc(S(=O)(=O)NC23CC4CC(CC(C4)C2)C3)cc1	> 25 µM (inactive)	> 25
CC1(C)C=C2[C@H]3CC[C@@H]4[C@@]5(C)CCC(=O)C(C)(C)[C@@H]5CC[C@@]4(C)[C@]3(C)CC[C@@]2(C(=O)O)CC1	21.9 µM	> 25
COc1ccc(-c2noc(CSc3nnc(Cc4ccccc4)n3-c3ccc(Cl)cc3)n2)cc1	16.1 µM	> 25
CC1=C(C#N)C(NC(=O)c2ccc(C)cc2)(C(F)(F)F)C(=O)N1 (stereo not given)	> 25 µM (inactive)	> 25
CC(C)(C)CC(C)(C)NC(=O)Nc1cccc([N+](=O)[O-])c1	> 25 µM (inactive)	> 25
COC(=O)c1ccc(NC(=O)Nc2ccc(F)c(Cl)c2)cc1	19.4 µM	> 25
O=C(CSc1nnc2scc(-c3ccccc3)n12)Nc1ccc2c(c1)OCCO2	> 25 µM (inactive)	> 25
CS(=O)(=O)N1CCc2cc(C(=O)N3CCOCC3)ccc21	> 25 µM (inactive)	> 25
Nc1[nH]n2c(=O)c3c(nc2c1N=Nc1ccccc1)CCCC3	> 25 µM (inactive)	> 25
CCN(CC)P(=O)(Nc1ccc(C)cc1Br)c1ccc(N(C)C)cc1NC(=O)c1ccco1 (stereo not given)	12.8 µM	> 25
O=C1Nc2ccc(Cl)cc2C12Nc1ccccc1-c1nnc(SCc3ccccc3F)nc1O2 (stereo not given)	> 25 µM (inactive)	> 25
Cc1ccc(-n2cc(-c3ccccc3)c3c(N4CCOCC4)ncnc32)cc1	21 µM	> 25
c1ccc(-c2[nH]c(-c3ccccc3)[n+](CC3CO3)c2-c2ccccc2)cc1 (stereo not given)	18.8 µM	> 25
c1csc(C(c2nnnn2C2CCCCC2)N2CCCC3(CCCCC3)C2)c1 (stereo not given)	4.15 µM	> 25
Cc1cc(C(=O)CSc2nnc(-c3ccc(Cl)cc3)n2CC2CCCO2)c(C)n1C (stereo not given)	> 25 µM (inactive)	> 25
